According to patent US5614520A, “2-arylthiazole derivatives and pharmaceutical composition thereof” (priority 1990, dated 1997):
“And” between values parts separate entries of the source, which are not always exact repeats. Equal entries are not always repeated.

Tests used:
interleukin 1 production = test: Interleukin 1 production inhibitory activity (LPS, abdominal exuded macrophage, ELISA); format: cell-based, BALB/c mouse; settings: 10^-6 M, 1 μg/ml LPS, 24 hours, mouse macrophage
Protocol: 1 ml of a 5% oyster glycogen solution was intra-abdominally administered to a BALB/c mouse (male, 8 weeks in age), and 4 days after the administration, the infiltrated abdominal exuded cells were adhered to a plastic dish for 2 hours, and 1 μg/ml of LPS was allowed to act on macrophage (1×10^6 cells). Interleukin 1 extricated on the supernatant in 24 hours was measured by an ELISA technique. The test compound (compounds of Ex. No. described in Table 3) was prepared so as to have a concentration of 10^-6 M, and the interleukin 1 production inhibitory activity was, expressed in terms of the percentage inhibition based on the amount of production of the control.

serum uric acid = test: Determination of oral administration: lowering of serum uric acid in mice; format: in vivo, ICR male mice; settings: Mus musculus; ICR male mice, oral, 1 mg/kg, 2 hours after administration, serum; read-out: Activity of lowering uric acid
Protocol: Test compounds suspended in a 5% gum arabic solution was forcibly administered by oral administration (compounds of Ex. No. of Table 2, dose: 1 mg/kg) to ICR male mice (age: about 7 weeks) (one group: 6 mice) by means of an oral probe. 2 hours after the administration, thoracotomy was conducted under etherization to collect blood from the heart, and serum was removed by a conventional process. The serum uric acid was measured by a biochemical automatic analyzer (Flexigem; Electro-Nucleonics, Inc.) by using a uric acid measurement kit (UA reagent; International Reagent) to determine the percentage of the lowering of uric acid. [formula]

xanthine oxidase = molecular target: T1, xanthine oxidase (Bos taurus, UniProt P80457); test: In vitro determination of xanthine oxidase (XOD) inhibition; format: biochemical; settings: xanthine oxidase from butter milk, xanthine substrate, pH 7.4, 37° C.
T1 construct: purchased Sigma Chemical Company; host or cells: butter milk
T1 sequence (P80457 whole entry): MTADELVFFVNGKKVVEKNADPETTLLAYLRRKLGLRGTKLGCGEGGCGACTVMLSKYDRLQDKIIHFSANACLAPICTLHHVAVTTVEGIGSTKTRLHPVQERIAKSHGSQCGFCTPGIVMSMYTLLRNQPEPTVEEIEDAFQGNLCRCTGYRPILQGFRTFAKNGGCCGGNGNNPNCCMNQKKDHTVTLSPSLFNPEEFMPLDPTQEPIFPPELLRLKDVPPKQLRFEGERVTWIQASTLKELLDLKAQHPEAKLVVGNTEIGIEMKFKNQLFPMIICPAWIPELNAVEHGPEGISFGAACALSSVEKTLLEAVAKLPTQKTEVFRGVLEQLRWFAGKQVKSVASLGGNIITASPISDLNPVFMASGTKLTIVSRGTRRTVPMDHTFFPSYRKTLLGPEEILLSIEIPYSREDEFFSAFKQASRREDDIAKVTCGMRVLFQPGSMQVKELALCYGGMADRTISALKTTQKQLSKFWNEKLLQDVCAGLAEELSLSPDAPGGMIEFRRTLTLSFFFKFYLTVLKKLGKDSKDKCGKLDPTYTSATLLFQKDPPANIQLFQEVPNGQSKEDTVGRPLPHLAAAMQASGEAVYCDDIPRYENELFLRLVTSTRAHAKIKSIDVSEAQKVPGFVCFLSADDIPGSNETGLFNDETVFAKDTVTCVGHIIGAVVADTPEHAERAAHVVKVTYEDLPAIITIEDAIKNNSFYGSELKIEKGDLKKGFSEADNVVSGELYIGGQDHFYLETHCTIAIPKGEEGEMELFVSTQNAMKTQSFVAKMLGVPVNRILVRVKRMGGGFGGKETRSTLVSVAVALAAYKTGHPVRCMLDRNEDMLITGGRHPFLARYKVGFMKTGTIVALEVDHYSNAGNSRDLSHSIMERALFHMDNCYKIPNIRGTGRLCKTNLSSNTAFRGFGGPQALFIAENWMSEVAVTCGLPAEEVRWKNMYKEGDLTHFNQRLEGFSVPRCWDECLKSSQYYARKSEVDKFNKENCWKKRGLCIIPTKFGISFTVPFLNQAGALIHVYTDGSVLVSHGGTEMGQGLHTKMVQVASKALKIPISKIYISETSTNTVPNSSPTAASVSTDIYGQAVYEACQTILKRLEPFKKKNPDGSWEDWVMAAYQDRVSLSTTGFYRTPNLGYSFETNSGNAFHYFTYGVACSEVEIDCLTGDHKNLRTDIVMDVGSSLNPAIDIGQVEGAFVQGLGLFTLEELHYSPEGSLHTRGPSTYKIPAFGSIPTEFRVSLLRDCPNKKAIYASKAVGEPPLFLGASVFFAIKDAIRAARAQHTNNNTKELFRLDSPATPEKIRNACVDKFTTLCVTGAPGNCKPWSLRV
Protocol: (1) Preparation of test compounds:
Test compounds (compounds of Ex. No. listed in Table 1) were dissolved in dimethylsulfoxide and diluted with a 50 mM phosphate buffer to prepare aqueous solutions respectively having predetermined concentrations.
The inhibition rate was determined by the following equation: [formula]
The inhibition (%) was determined on each test compound prepared according to (1), and the IC50 value on the xanthine oxidase (XOD) inhibition was calculated from the value of inhibition.

collagen arthritis = test: Collagen arthritis inhibitory activity (bovine II type collagen in rats); format: in vivo, Lewis rats; settings: 6 weeks; for Swelling: 5 times per week, right foot volume increase, control 45.5 ± 5.1; for Antibody titer of anti-collagen: serum, ELISA, control 2.04 ± 0.36
Protocol: An emulsion comprising a bovine II type collagen and incomplete Freund's adjuvant in a proportion of 1:1 were intradermally injected to Lewis rats (male, about 6 weeks in age) (one group: 8 […]) at the region of the back so that the amount of antigen was 2 mg/rat, thereby inducing arthritis. The compound of Ex. No. 35 was suspended in a 5% gum arabic solution, and orally administered 5 times per week in two groups of 10 mg/kg and 50 mg/kg from the sensitized day. Only the gum arabic solution was administered to the control. Then 6 weeks after the sensitization, the percentage increase in the volume of the right foot was measured and expressed in terms of the percentage swelling, and the anti-collagen antibody titer of the serum was measured by the ELISA technique.

Compound	IC50 (xanthine oxidase)	inhibition at 1 µM (interleukin 1 production) [%]	inhibition in vivo at 1 mg/kg (serum uric acid) [%]	Swelling (collagen arthritis; 10 mg/kg oral, *P < 0.05) [%]	Antibody titer of anti-collagen (collagen arthritis; 10 mg/kg oral) [μU/ml]	Swelling (collagen arthritis; 50 mg/kg oral, **P < 0.01) [%]	Antibody titer of anti-collagen (collagen arthritis; 50 mg/kg oral) [μU/ml]
CCOCCOc1ccc(-c2nc(C)c(C(=O)O)s2)cc1Br [Example 64, 2-(3-Bromo-4-(2-ethoxyethyloxy)phenyl)-4-methyl-5-thiazolecarboxylic acid]	2.9 nM	28	25				
Cc1nc(-c2ccc(C(F)(F)F)cc2)sc1C(=O)O [Example 6, 4-Methyl-2-(4-trifluoromethylphenyl)-5-thiazolecarboxylic acid]	310 nM	38					
Cc1nc(-c2ccc(N3CCOCC3)c([N+](=O)[O-])c2)sc1C(=O)O [Example 45, 4-methyl-2(4-morpholino-3-nitrophenyl)-5-thiazolecarboxylic acid]	1.8 nM	18	88				
Cc1ccc(C(=O)c2ccc(-c3nc(C)c(C(=O)O)s3)cc2)c(C)c1 [Example 75, 2-(4-(2,4-Dimethylbenzoyl)phenyl)-4-methyl-5-thiazolecarboxylic acid]	0.83 nM	48	33				
Cc1nc(-c2ccc(C(=O)c3ccccc3)cc2)sc1C(=O)O [Example 20, 2-(4-Benzoylphenyl)-4-methyl-5-thiazolecarboxylic acid]	6 nM and 6.2 nM	65	18	25.4 ± 5.3	1.88 ± 0.20	21.2 ± 4.2	1.68 ± 0.32
Cc1nc(-c2cc(C(F)(F)F)cc(C(F)(F)F)c2)sc1C(=O)O [Example 26, 2-(3,5-Bistrifluoromethylphenyl)-4-methyl-5-thiazolecarboxylic acid]	5.7 nM	57	63				
Cc1nc(-c2ccc(N3CCCCC3)c([N+](=O)[O-])c2)sc1C(=O)O [Example 44, 4-methyl-2-(3-nitro-4-piperidinophenyl)-5-thiazolecarboxylic acid]	1.6 nM	22	83				
Cc1nc(-c2ccc(OCC(C)(C)C)c([N+](=O)[O-])c2)sc1C(=O)O [Example 43, 2-(4-neopentyloxy-3-nitrophenyl)-4-methyl-5-thiazolecarboxylic acid]	0.64 nM	39	85				
Cc1ccc(C(=O)c2ccc(-c3nc(C)c(C(=O)O)s3)cc2)cc1 [Example 74, 4-Methyl-2-(4-(4-methylbenzoyl)phenyl)-5-thiazolecarboxylic acid]	4.8 nM	52	39				
Cc1nc(-c2ccc(OCc3ccc(F)cc3)c(Cl)c2)sc1C(=O)O [Example 58, 2-(3-Chloro-4-(4-fluorobenzyloxy)phenyl)-4-methyl-5-thiazolecarboxylic acid]	3.4 nM	19	18				

The next lines start with results.

IC50 (xanthine oxidase)	Compound	inhibition at 1 µM (interleukin 1 production) [%]	inhibition in vivo at 1 mg/kg (serum uric acid) [%]	Swelling (collagen arthritis; 10 mg/kg oral, *P < 0.05) [%]	Antibody titer of anti-collagen (collagen arthritis; 10 mg/kg oral) [μU/ml]	Swelling (collagen arthritis; 50 mg/kg oral, **P < 0.01) [%]	Antibody titer of anti-collagen (collagen arthritis; 50 mg/kg oral) [μU/ml]
0.63 nM	Cc1nc(-c2cccc(C(F)(F)F)c2)sc1C(=O)O [Example 5, 4-Methyl-2-(3-trifluoromethylphenyl)-5-thiazolecarboxylic acid]	60	37				
150 nM	Cc1nc(-c2cccc(C(=O)Nc3ccc(Cl)cc3)c2)sc1C(=O)O [Example 15, 2-(3-(4-chlorophenylcarbamoyl)phenyl)-4-methyl-5-thiazolecarboxylic acid]	38					
0.67 nM	Cc1nc(-c2ccc(OCCC(C)C)c([N+](=O)[O-])c2)sc1C(=O)O [Example 40, 2-(4-Isopentyloxy-3-nitrophenyl)-4-methyl-5-thiazolecarboxylic acid]	36	85				
2.4 nM	Cc1nc(-c2ccc(OC(C)C)c(Cl)c2)sc1C(=O)O [Example 50, 2-(3-Chloro-4-isopropoxyphenyl)-4-methyl-5-thiazolecarboxylic acid]	42	20				
2.3 nM	CCOc1ccc(-c2nc(C)c(C(=O)O)s2)cc1Cl [Example 49, 2-(3-chloro-4-ethoxyphenyl)-4-methyl-5-thiazolecarboxylic acid]	48	35				
2.7 nM	Cc1nc(-c2ccc(OCCC(C)C)c(Cl)c2)sc1C(=O)O [Example 52, 2-(3-Chloro-4-isopentyloxyphenyl)-4-methyl-5-thiazolecarboxylic acid]	33	47				
67 nM	Cc1nc(-c2cccc(OC(C)C)c2)sc1C(=O)O [Example 1, 2-(3-isopropoxyphenyl)-4-methyl-5-thiazolecarboxylic acid]	83					
1.5 nM	Cc1nc(-c2ccc(OCC(C)C)c(F)c2)sc1C(=O)O [Example 67, 2-(3-fluoro-4-isobutyloxyphenyl)-4-methyl-5-thiazolecarboxylic acid]	48	50				
